Test results published in US20240208950A1, “COMPOSITIONS AND METHODS FOR TREATMENT OF CERVICAL AND OVARIAN CANCER” (SOUTH DAKOTA BOARD OF REGENTS, priority 2021, published 2024).

Key:
β-catenin in SiHa cells = assay: β-catenin degradation with cyclohexamide (western blot, pulse chase), SiHa; format: cell-based, human; conditions: with cyclohexamide (CHX: 50 mg), ORM-Br
Experimental: A western blot analysis was conducted to determine the effect of ORM-Br on β-catenin degradation. […] Protein lysates were prepared and subjected to western blot analysis to ascertain the levels of protein of β-catenin in cyclohexamide-treated cells (FIG. 3A) and in ORM-Br and cyclohexamide-treated cells (FIG. 3B).

β-catenin in CaSki cells = assay: Western blot of β-catenin in nuclear and cytoplasmic extracts, CaSki; format: cell-based, human; conditions: 15 μM, 24 hours
Experimental: In the Example shown at FIGS. 9A-9E, cells were subjected to treatment with 15 μM concentration of ORM-Br for 24 hours, nuclear extracts were prepared and western blot analysis were used to detect the protein levels of β-catenin. […] Western blots were reprobed with β-actin and Histone H3 antibodies as an internal control.
The nuclear and cytoplasmic lysates were prepared using respective buffers. The cell lysates (40 μg) were subjected to SDS-PAGE and blotted on PVDF membrane. The membranes were further blocked in 5% milk diluted in 1×TBST solution for 1 hour and incubated overnight in primary antibodies. The following day, the membranes were washed and incubated with secondary antibodies for 1 hour, washed again and developed on a UVP system using chemi-luminiscent reagents.
The EMT process in a cell is driven by growth factors or other signaling proteins such as Wnt/beta-catenin and extracellular matrix component that may stimulate cellular growth and migration. The effect of Br-ORM on β-catenin signaling was examined.
FIG. 15. Effect OF Br-ORM on β-catenin signaling and molecular docking of Br-ORM with β-catenin. Effect of Br-ORM on β-catenin distribution in cytoplasm and nucleus of CaSki and SiHa cells. […] Effect of Br-ORM on β-catenin localization in CaSki cells as determined by confocal microscopy (FIG. 15B(i)-(ii)). […]

CaSki cells = assay: Apoptosis analysis by Annexin V staining, CaSki; format: cell-based, human; conditions: 10 μM, 24 hours
Experimental: The apoptosis inducing effect of Br-ORM on cervical cells was analyzed by Annexin V-FLUOS staining kit (Roche Diagnostic Corp. Indianapolis, IN, USA). The procedure was followed as described in the vendor's protocol. Briefly, 60% confluent cervical cancer cells (CaSki and SiHa) were treated with Br-ORM (10, 15, and 20 μM) and kept in a CO2 incubator at 37° C. for 24 hours. Control group cells were treated with DMSO as the vehicle. Cells were washed with PBS (1×) and kept in Annexin-V solution for 20 minutes. Images were captured in bright and green field by fluorescent microscope.
It was observed that Br-ORM exerts potent growth inhibitory effects, so the effect of Br-ORM on apoptosis induction was further examined. Cervical cancer cells were treated with Br-ORM (10 μM) for 24 hours and the apoptosis inducing effect of Br-ORM was analyzed by Annexin V staining and Western blot analysis for cleavage in PARP protein.

[1] = tested on: miR-200a in cervical cancer cells; assay: qRT-PCR of miR-200a; format: cell-based, human; conditions: qPCR, 24 hours
Experimental: RNA from cervical cancer cells was isolated using Qiagen kit and quantified using NanoDrop instrument 2000 (Thermo Scientific, Waltham, MA, USA). To analyze the expression of miR-200a in control and Br-ORM treated cells, 100 ng total RNA was reverse transcribed into cDNA using specific primers designed for miRNA analysis (Applied Biosystems, Foster City, CA, USA). The expression of this miRNAs was determined by qRT-PCR using the Taqman PCR master mixture and specific primers designed for detection of mature miRNAs (Applied Biosystems). The expression of miRNA was normalized with the expression of endogenous control, RNU6B.
Modulations of microRNAs are involved in cervical cancer development, progression and metastasis. It is reported that expression of β-catenin is directly regulated by miR-200a. Br-ORM targets β-catenin signaling, therefore, to further understand the underlying mechanisms, the expression of miR-200a following the Br-ORM treatment was evaluated.
FIG. 16. Effect of Br-ORM on HPV oncoproteins and tumor suppressor miR-200 in cervical cancer cells. […] Increase expression of tumor suppressor miR200a in cervical cancer cells treated with BR-ORM for 24 hours in comparison to non-treated controls was determined through real time PCR (FIG. 16A(v)-(vii)). […]

[2] = tested on: CaSki cells derived xenograft tumors; assay: Orthotopic xenograft mouse model of cervical cancer; format: in vivo, female athymic nude mice; conditions: 250 μg/mice intra-tumoral
[3] = three times per week, vs control

**Q.** With `COc1ccc2c(c1)OC(C)(C)C(c1ccc(Br)cc1)C2c1ccc(OCCN2CCCC2)cc1` (stereo not shown) [ORM-Br] as the compound, how does the “protein levels of β-catenin relative to cyclohexamide treatment” value (β-catenin in SiHa cells) read?
**A.** significant decrease in protein levels of β-catenin

**Q.** What about the “nuclear β-catenin expression” value (β-catenin in CaSki cells) of the same compound?
**A.** decrease in expression of nuclear β-catenin

**Q.** And the “nuclear β-catenin expression” value (β-catenin in CaSki cells; listed as Br-ORM)?
**A.** inhibited nuclear β-catenin

**Q.** What about the “apoptosis induction (Annexin V staining)” value (CaSki cells) of the same compound?
**A.** induced apoptosis

**Q.** What about the “expression of miR-200a” value [1] of the same compound?
**A.** significant (P<0.05) increase

**Q.** What about the tumor volume [2, 3] of the same compound?
**A.** significantly (p<0.05) reduced

**Q.** What about the tumor weight [2, 3] of the same compound?
**A.** significantly (p<0.05) reduced

**Q.** And the “expression of E-cadherin in xenograft tumors (IHC)” value ([2]; excised tumors)?
**A.** increase in the expression of E-cadherin

**Q.** And the “expression of miR-200a in excised xenograft tumors (in situ hybridization)” value ([2]; excised tumors)?
**A.** Increased expression of miR-200a

**Q.** And the “expression of β-catenin, vimentin, snail, slug, HPV-E6, HPV-E7, and PCNA in xenograft tumors (IHC)” value ([2]; excised tumors)?
**A.** significant downregulation
